Patent US20240317708A1, “INHIBITORS OF TRANSGLUTAMINASES” (ZEDIRA GMBH, priority 2021, published 2024)

Tests used:
[1] = Caco-2 permeability assay (CacoReady kit); format: in vitro ADME; conditions: human
In short: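 Apparent permeability coefficients (Papp) were measured across Caco-2 cell barriers using a ready-to-use kit run per the supplier's protocol. Values serve as a predictor of oral/intestinal bioavailability.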

[2] = target: T1, recombinant human transglutaminase 2 (Homo sapiens, UniProt P21980); test: Transglutaminase assay (dansylcadaverine incorporation into dimethylcasein, DCC-assay); format: biochemical; conditions: for IC50: recombinant human TG2 10 nM, dansylcadaverine/dimethylcasein, 37° C.
T1 construct: purchased Zedira T022
T1 sequence (P21980 1-687): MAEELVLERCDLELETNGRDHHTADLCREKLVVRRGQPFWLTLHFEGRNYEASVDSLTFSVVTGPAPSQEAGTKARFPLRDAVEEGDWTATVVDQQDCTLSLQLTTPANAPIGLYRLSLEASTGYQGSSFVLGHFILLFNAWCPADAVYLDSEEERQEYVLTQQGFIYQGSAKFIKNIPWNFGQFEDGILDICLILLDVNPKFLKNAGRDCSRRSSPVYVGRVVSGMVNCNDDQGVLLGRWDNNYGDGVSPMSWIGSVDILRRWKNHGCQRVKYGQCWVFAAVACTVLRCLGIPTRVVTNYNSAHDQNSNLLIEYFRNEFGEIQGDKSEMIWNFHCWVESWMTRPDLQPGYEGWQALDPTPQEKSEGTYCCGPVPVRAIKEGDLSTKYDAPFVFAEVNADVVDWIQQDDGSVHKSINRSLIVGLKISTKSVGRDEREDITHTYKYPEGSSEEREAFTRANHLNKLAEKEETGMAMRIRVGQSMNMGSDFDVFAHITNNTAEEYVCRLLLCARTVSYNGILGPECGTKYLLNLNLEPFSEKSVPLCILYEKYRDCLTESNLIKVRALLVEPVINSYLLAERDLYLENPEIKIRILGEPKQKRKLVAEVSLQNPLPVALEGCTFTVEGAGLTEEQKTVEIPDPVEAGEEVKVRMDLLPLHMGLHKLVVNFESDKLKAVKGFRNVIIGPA
In short: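 IC50 derived from fluorescence slope between 20 and 30 min (λex 330 nm, λem 500 nm, 37 °C), expressed relative to a 2% DMSO control. Reaction: 10 nM recombinant human TG2, 4 μM dimethylcasein, 16.7 μM dansylcadaverine, 10 mM CaCl2 and glutathione, pH 8.0.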

[3] = Log D shake flask method (octanol / PBS pH 7.4, HPLC); format: physicochemical; conditions: octanol/phosphate-buffered saline (PBS); octanol / PBS pH 7.4, shake flask
Experimental: In order to classify the inventive compounds according to their lipophilicity, Log D values (distribution coefficient) were determined by means of the well-established shake flask method, measuring the partition of a compound between an octanol and phosphate-buffered saline (PBS, pH 7.4) by HPLC.

Row | Papp [1] [×10⁻⁶ cm/s] | times less potent in comparison to compound III-83 ([2]; IC50 ratio vs III-83, Table 1) | IC50 [2] [nM] | logD [3] | Structure (SMILES)
1 | < 1 | more than 25 times | 250 to 1500 | 1 to 3 | COC(=O)/C=C/CC[C@H](NC(=O)c1cccnc1)C(=O)Nc1cccn(CC(=O)NCCc2ccccc2)c1=O [Ref. 5, reference compound]
2 | 1 to 10 |  | 25 to 250 | 1 to 3 | CCc1c(C(=O)N[C@@H](CC/C=C/C(=O)NC2CCCC2)C(=O)Nc2cccn(CC(=O)NC34CC(C3)C4)c2=O)oc2ccccc12 [III-147, (S,E)-N7-(1-(2-(bicyclo[1.1.1]pentan-1-ylamino)-2-oxoethyl)-2-oxo-1,2-dihydropyridin-3-yl)-N1-cyclopentyl-6-(3-ethylbenzofuran-2-carboxamido)hept-2-enediamide]
3 | 1 to 10 |  | < 25 | 3 to 5 | COC(=O)/C=C/CC[C@H](NC(=O)c1oc2ccccc2c1C)C(=O)Nc1cccn(CC(=O)NC2C3CC4CC2CC(F)(C4)C3)c1=O (stereo partly drawn) [III-39, (S,E)-methyl 7-(1-(2-(5-fluoroadamantan-2-amino)-2-oxoethyl)-2-oxo-1,2-dihydropyridin-3-ylamino)-6-(3-methylbenzofuran-2-carboxamido)-7-oxohept-2-enoate]
4 | < 1 |  | 250 to 1500 | < 1 | C=CCNC(=O)/C=C/CC[C@H](NC(=O)c1nccc2cnccc12)C(=O)Nc1cccn(CC(=O)NC23CC(C2)C3)c1=O [III-151, (S,E)-N1-allyl-N7-(1-(2-(bicyclo[1.1.1]pentan-1-ylamino)-2-oxoethyl)-2-oxo-1,2-dihydropyridin-3-yl)-6-(2,6-naphthyridine-1-carboxamido)hept-2-enediamide]
